Among the data in US10745382B2 (BRISTOL-MYERS SQUIBB COMPANY, priority 2015, dated 2020) are IC50 values, retold here.

Structures are written as SMILES.

T1 sequence (Q9NZQ7 with tags, fused parts or gaps): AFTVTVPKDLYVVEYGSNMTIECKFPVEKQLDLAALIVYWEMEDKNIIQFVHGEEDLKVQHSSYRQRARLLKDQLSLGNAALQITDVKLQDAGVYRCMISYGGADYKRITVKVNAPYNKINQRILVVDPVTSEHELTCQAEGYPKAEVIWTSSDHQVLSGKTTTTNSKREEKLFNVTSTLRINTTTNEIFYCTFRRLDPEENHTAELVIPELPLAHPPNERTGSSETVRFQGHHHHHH

This assay addresses T1, PD-1/PD-L1 (Homo sapiens, UniProt Q9NZQ7).
T1 construct: made in house; host or cells: HEK293T
Kind of assay: PD-1/PD-L1 Homogenous Time-Resolved Fluorescence (HTRF) binding assay. The conditions noted are these: PD-L1-His 10 nM, PD-1-Ig 20 nM; value given as range class; read-out: Range or IC50. How it is done: The ability of the compounds of formula (I) to bind to PD-L1 was investigated using a PD-1/PD-L1 Homogenous Time-Resolved Fluorescence (HTRF) binding assay.
Homogenous Time-Resolved Fluorescence (HTRF) Binding Assay.
All binding studies were performed in an HTRF assay buffer consisting of dPBS supplemented with 0.1% […] bovine serum albumin and 0.05% (v/v) Tween-20. […] HTRF detection was achieved using europium crypate-labeled anti-Ig (1 nM final) and allophycocyanin (APC) labeled anti-His (20 nM final). Antibodies were diluted in HTRF detection buffer and 5 μl was dispensed on top of the binding reaction. […] Additional binding assays were established between the human proteins PD-1-Ig/PD-L2-His (20 & 5 nM, respectively) and CD80-His/PD-L1-Ig (100 & 10 nM, respectively). […]
In general terms: In TR-FRET formats the signal depends on donor and acceptor labels being close together.
As to `Cc1c(COc2cc(OCc3cncc(C#N)c3)c(CN3CC[C@H](O)C3)cc2Cl)cccc1-c1ccc2c(c1)OC(CCN1CC[C@H](O)C1)CO2` (mixture of isomers) [Example 1501, 5-((4-chloro-5-((3-(3-(2-((S)-3-hydroxypyrrolidin-1-yl)ethyl)-2,3-dihydrobenzo[b][1,4]dioxin-6-yl)-2-methylbenzyl)oxy)-2-(((S)-3-hydroxypyrrolidin-1-yl)methyl)phenoxy)methyl)nicotinonitrile], the IC50 lay within 0.21 to 10 nM. The value for `Cc1c(COc2cc(OCc3cncc(C#N)c3)c(C=O)cc2Cl)cccc1-c1ccc2c(c1)OC(CCN1CC[C@H](O)C1)CO2` (mixture of isomers) [Example 1502, 5-((4-chloro-2-formyl-5-((3-(3-(2-((S)-3-hydroxypyrrolidin-1-yl)ethyl)-2,3-dihydrobenzo[b][1,4]dioxin-6-yl)-2-methylbenzyl)oxy)phenoxy)methyl)nicotinonitrile] was 10 to 100 nM; that for `Cc1c(COc2cc(OCc3cncc(C#N)c3)c(CN3CCCC[C@H]3C(=O)O)cc2Cl)cccc1-c1ccc2c(c1)OC(CCN1CC[C@H](O)C1)CO2` (mixture of isomers) [Example 1503, (2S)-1-(5-chloro-2-((5-cyanopyridin-3-yl)methoxy)-4-((3-(3-(2-((S)-3-hydroxypyrrolidin-1-yl)ethyl)-2,3-dihydrobenzo[b][1,4]dioxin-6-yl)-2-methylbenzyl)oxy)benzyl)piperidine-2-carboxylic acid] was 10 to 100 nM. In the case of `Cc1c(COc2cc(OCc3cncc(C#N)c3)c(CN3CCCC[C@H]3C(=O)O)cc2Cl)cccc1-c1ccc2c(c1)OC(CCN1CC[C@@H](O)C1)CO2` (mixture of isomers) [Example 1504, (2S)-1-(5-chloro-2-((5-cyanopyridin-3-yl)methoxy)-4-((3-(3-(2-((R)-3-hydroxypyrrolidin-1-yl)ethyl)-2,3-dihydrobenzo[b][1,4]dioxin-6-yl)-2-methylbenzyl)oxy)benzyl)piperidine-2-carboxylic acid] it was 0.21 to 10 nM; in that of `Cc1c(COc2cc(OCc3cncc(S(C)(=O)=O)c3)c(CN3CCCC[C@H]3C(=O)O)cc2Cl)cccc1-c1ccc2c(c1)OC(CCN1CC[C@@H](O)C1)CO2` (mixture of isomers) [Example 1507, (2S)-1-(5-chloro-4-((3-(3-(2-((R)-3-hydroxypyrrolidin-1-yl)ethyl)-2,3-dihydrobenzo[b][1,4]dioxin-6-yl)-2-methylbenzyl)oxy)-2-((5-(methylsulfonyl)pyridin-3-yl)methoxy)benzyl)piperidine-2-carboxylic acid], 0.21 to 10 nM; in that of `Cc1c(COc2cc(OCc3cncc(S(C)(=O)=O)c3)c(CN3CCCC[C@H]3C(=O)O)cc2Cl)cccc1-c1ccc2c(c1)OC(CCN1CCC(O)(CC(=O)O)C1)CO2` (mixture of isomers) [Example 1508, (2S)-1-(4-((3-(3-(2-(3-(carboxymethyl)-3-hydroxypyrrolidin-1-yl)ethyl)-2,3-dihydrobenzo[b][1,4]dioxin-6-yl)-2-methylbenzyl)oxy)-5-chloro-2-((5-(methylsulfonyl)pyridin-3-yl)methoxy)benzyl)piperidine-2-carboxylic acid], 0.21 to 10 nM. As for `Cc1c(COc2cc(OCc3cncc(S(C)(=O)=O)c3)c(CN3CCCC[C@H]3C(=O)O)cc2Cl)cccc1-c1cccc(OCCCN2CCC(O)(CC(=O)O)C2)c1C` (mixture of isomers) [Example 1516, (2S)-1-(4-((3′-(3-(3-(carboxymethyl)-3-hydroxypyrrolidin-1-yl)propoxy)-2,2′-dimethyl-[1,1′-biphenyl]-3-yl)methoxy)-5-chloro-2-((5-(methylsulfonyl)pyridin-3-yl)methoxy)benzyl)piperidine-2-carboxylic acid], the IC50 was in the range of 0.21 to 10 nM. The value for `Cc1c(COc2cc(OCc3cncc(C#N)c3)c(CN3CCCC[C@H]3C(=O)O)cc2Cl)cccc1-c1cccc(OCCCN2CCC(O)(CC(=O)O)C2)c1C` (mixture of isomers) [Example 1519, (2S)-1-(4-((3′-(3-(3-(carboxymethyl)-3-hydroxypyrrolidin-1-yl)propoxy)-2,2′-dimethyl-[1,1′-biphenyl]-3-yl)methoxy)-5-chloro-2-((5-cyanopyridin-3-yl)methoxy)benzyl)piperidine-2-carboxylic acid] was 0.21 to 10 nM; that for `CCOC(=O)CC1(O)CCN(CCC2COc3ccc(-c4cccc(COc5cc(OCc6cncc(S(C)(=O)=O)c6)c(CN6CCCC[C@H]6C(=O)OC)cc5Cl)c4C)cc3O2)C1` (mixture of isomers) [Example 1527, (2S)-methyl 1-(5-chloro-4-((3-(3-(2-(3-(2-ethoxy-2-oxoethyl)-3-hydroxypyrrolidin-1-yl)ethyl)-2,3-dihydrobenzo[b][1,4]dioxin-6-yl)-2-methylbenzyl)oxy)-2-((5-(methylsulfonyl)pyridin-3-yl)methoxy)benzyl)piperidine-2-carboxylate] was 10 to 100 nM. Regarding `Cc1c(COc2cc(OCc3cncc(C#N)c3)c(CNC(C)(CO)C(=O)O)cc2Cl)cccc1-c1cccc(OCc2cncc(C#N)c2)c1` (racemic) [Example 3018, 2-((5-chloro-2-((5-cyanopyridin-3-yl)methoxy)-4-((3′-((5-cyanopyridin-3-yl)methoxy)-2-methyl-[1,1′-biphenyl]-3-yl)methoxy)benzyl)amino)-3-hydroxy-2-methylpropanoic Acid], the IC50 lay in the range of 0.21 to 10 nM. Turning to `Cc1c(COc2cc(OCc3cncc(S(C)(=O)=O)c3)c(CN3CCCC[C@H]3C(=O)O)cc2Cl)cccc1-c1cccc(OCCCN2CCC(CO)(C(=O)O)C2)c1Cl` (single isomer, unassigned) [Example 1062], the IC50 was 0.21 to 10 nM. In the case of `Cc1c(COc2cc(OCc3cncc(S(C)(=O)=O)c3)c(CNC(C)(CO)C(=O)O)cc2Cl)cccc1-c1cccc(OCCCN2CCC(CO)(C(=O)O)C2)c1Cl` (single isomer, unassigned) [Example 1063] it was 0.21 to 10 nM.

Consider `Cc1c(COc2cc(OCc3cncc(S(C)(=O)=O)c3)c(CNC(C)(CO)C(=O)O)cc2Cl)cccc1-c1cccc(OCCCN2CCC(CO)(C(=O)O)C2)c1Cl` (single isomer, unassigned) [Example 1064], for which the IC50 lay within 0.21 to 10 nM.

Turning to `Cc1c(COc2cc(OCc3cncc(S(C)(=O)=O)c3)c(CN3CCCC[C@H]3C(=O)O)cc2Cl)cccc1-c1cccc(OCCCN2CCC(CO)(C(=O)O)C2)c1Cl` (single isomer, unassigned) [Example 1065], the IC50 lay in the range of 0.21 to 10 nM. As to `Cc1c(COc2cc(OCc3cncc(C#N)c3)c(CN3CCCC[C@H]3C(=O)O)cc2Cl)cccc1-c1cccc(OCCCN2CCC(CO)(C(=O)O)C2)c1C` (single isomer, unassigned) [Example 1066], the IC50 fell in the range of 0.21 to 10 nM. Turning to `Cc1c(COc2cc(OCc3cncc(C#N)c3)c(CNC(C)(CO)C(=O)O)cc2Cl)cccc1-c1cccc(OCCCN2CCC(CO)(C(=O)O)C2)c1C` (single isomer, unassigned) [Example 1067], the IC50 is 0.21 to 10 nM. On to `Cc1c(COc2cc(OCc3cncc(C#N)c3)c(CN3CCCC[C@H]3C(=O)O)cc2Cl)cccc1-c1ccc2c(c1)OC(CCN1CC[C@@H](O)C1)CO2` (single isomer, unassigned) [Example 1505], for which the IC50 lay within 0.21 to 10 nM.

Regarding `Cc1c(COc2cc(OCc3cncc(C#N)c3)c(CN3CCCC[C@H]3C(=O)O)cc2Cl)cccc1-c1ccc2c(c1)OC(CCN1CC[C@@H](O)C1)CO2` (single isomer, unassigned) [Example 1506], the IC50 is 0.21 to 10 nM.

For `Cc1c(COc2cc(OCc3cncc(C#N)c3)c(CNCCCN(C)C)cc2Cl)cccc1-c1cccc(OCCCN2CCC(O)C2)c1` (stereo in doubt) [Example 3001, (R)-5-((4-chloro-2-(((3-(dimethylamino)propyl)amino)methyl)-5-((3′-(3-(3-hydroxypyrrolidin-1-yl)propoxy)-2-methyl-[1,1′-biphenyl]-3-yl)methoxy)phenoxy)methyl)nicotinonitrile], the IC50 lay within 0.21 to 10 nM. For `Cc1c(COc2cc(OCc3cncc(C#N)c3)c(CN[C@@H](CCCNC(=N)N)C(=O)O)cc2Cl)cccc1-c1cccc(OCCCN2CCC(O)C2)c1` (stereo in doubt) [Example 3002, (S)-2-((5-chloro-2-((5-cyanopyridin-3-yl)methoxy)-4-((3′-(3-((R)-3-hydroxypyrrolidin-1-yl)propoxy)-2-methyl-[1,1′-biphenyl]-3-yl)methoxy)benzyl)amino)-5-guanidinopentanoic Acid], the IC50 was in the range of 0.21 to 10 nM.

On to `Cc1c(COc2cc(OCc3cncc(C#N)c3)c(CN[C@@](C)(CO)C(=O)O)cc2Cl)cccc1-c1cccc(OCCCN2CCC(O)C2)c1C` (stereo in doubt) [Example 3003, (S)-2-((5-chloro-2-((5-cyanopyridin-3-yl)methoxy)-4-((3′-(3-((R)-3-hydroxypyrrolidin-1-yl)propoxy)-2,2′-dimethyl-[1,1′-biphenyl]-3-yl)methoxy)benzyl)amino)-3-hydroxy-2-methylpropanoic Acid], for which the IC50 lay in the range of 0.21 to 10 nM. In the case of `Cc1c(COc2cc(OCc3cncc(C#N)c3)c(CN[C@@H](CO)C(=O)O)cc2Cl)cccc1-c1cccc(OCCCN2CCC(O)C2)c1C` (stereo in doubt) [Example 3004, (S)-2-((5-chloro-2-((5-cyanopyridin-3-yl)methoxy)-4-((3′-(3-((R)-3-hydroxypyrrolidin-1-yl)propoxy)-2,2′-dimethyl-[1,1′-biphenyl]-3-yl)methoxy)benzyl)amino)-3-hydroxypropanoic Acid], the IC50 was 0.21 to 10 nM.

Usually IC50 stands for the point on the concentration scale where inhibition reaches its midpoint.
